Experimental data reported in patent US9309547B2, “Methods for making tocoflexols and analogues thereof” (The Board of Trustees of the University of Arkansas, priority 2012, dated 2016).
Several values for one entry are separate records, joined by “and”; a condition that tells them apart may be missing. Identical values can stand only once.

Key:
[1] = test system: Mouse NSC 34 cells; test: Cell uptake of tocols by NSC 34 cells (GC/MS); assay type: cell-based; details: final concentration 5 μM, 0-24 hours, FIG. 1
Experimental: The experiment was carried out as described below. Mouse NSC 34 cells were grown in Dulbecco's modified Eagle's medium (DMEM) supplemented with 10% fetal bovine serum and 1% penicillin/streptomycin at 37° C. in a humidified atmosphere containing 95% air and 5% CO2. The cell culture medium was replaced every 2 or 3 days with fresh medium containing serum and antibiotic. Cells were reseeded when the cell monolayers became confluent. For the experiments, cells at passages 15-27 were seeded in 6-well plates at 1 million cells per well. 5 mM test solutions were prepared in DMSO. NSC 34 monolayers above 80% confluency were treated with 2 μl of test compound (final concentration 5 μM) for 0, 1, 2, 4, 8, 12, and 24 hours. […] Hexane extracts were dried under nitrogen and were quantitatively transferred to a deactivated glass micro insert using methylene chloride and dried under nitrogen. […] Protein concentration was determined using the Pierce BCA protein assay kit. The derivatized samples were analyzed using GC/MS by single ion monitoring (Agilent 5975 GC/MSD; Agilent Technologies, Palo Alto, Calif.). […] Samples were analyzed using helium as the carrier gas (head pressure of 27 psi), 1 μl splitless injection, the injector temperature was 275° C., the column temperature was maintained at 220° C. for 2 min followed by a gradient of 25° C./min to 300° C., and remained at that temperature for 10 min. […]

[2] = test system: rat liver microsomes; test: Inhibition of lipid peroxidation in rat liver microsomes treated with TBHP; assay type: biochemical, Wistar rat; details: FIG. 2; for IC50: 1 mg/ml microsomal protein, 37° C. 1 hour preincubation, 200 μM TBHP for 30 min
Experimental: One of the most well-known properties of the vitamin E components is their ability to prevent lipid peroxidation. See Traber et al. (2011) Free Radis Biol Med 51(5):1000-1013. Briefly, the antioxidant activity of vitamin E analogs was evaluated in rat liver microsomes by measuring inhibition of lipid peroxidation after TBHP ([…]) treatment. Wistar rat liver microsomes (BD Biosciences) were diluted in phosphate buffer, 0.1 M (pH 7.4), at the final protein concentration of 1 mg/ml. The microsomes were treated with different concentrations of tocols (diluted with DMSO) and incubated at 37° C. for 1 hour before inducing lipid peroxidation with 200 μM TBHP (DMSO) for 30 min.

Row | cell-uptake compared with that of α-tocopherol [1] | IC50 [2] [µM] | SMILES | antioxidant potential, times that of α-tocopherol (AT) ([2]; rat liver microsomes treated with 200 μM TBHP)
1 | almost double | 1.35 | CC(C)=CCC[C@@H](C)CCC/C(C)=C/CC[C@]1(C)CCc2cc(O)cc(C)c2O1 [δ-tocoflexol, (2R,8′S)-δ-tocoflexol] | > 5 times and 5 times
2 |  | 6.78 | Cc1c(C)c2c(c(C)c1O)CC[C@@](C)(CCC[C@H](C)CCC[C@H](C)CCCC(C)C)O2 [AT, α-tocopherol, reference compound] | 
